These results are taken from paper PMC10303791 (BMC Biology, 2023).

For orientation: EC50 means the concentration giving half of the maximal effect.

What all share (assay): two-electrode voltage clamp, oocytes, concentration-response
What all share (format): cell-based
(In general: Two-electrode voltage clamp is typically applied to oocytes expressing channels or transporters.)

Experiment [1] deals with T1, Xenopus tropicalis α4β2 nAChR, α4β2(FS) (Xenopus tropicalis, UniProt A0A8J0QAC2+A4IIS6, A4IIS6:F131L/A4IIS6:S133C).
T1 construct: gene chrna4; full-length single subunits in pCMV-SPORT6 (Dharmacon), cRNA co-injected in Xenopus laevis oocytes; stoichiometry unknown
The text has this:
(§1) two-electrode voltage clamp, oocytes, concentration-response on Xenopus tropicalis α4β2 nAChR, α4β2(FS)

Experiment [2] addresses T2, Xenopus tropicalis α4β2 nAChR, α4β2(FS) (Xenopus tropicalis, UniProt A0A8J0QAC2+A4IIS6).
T2 construct: gene chrna4; full-length single subunits in pCMV-SPORT6 (Dharmacon), cRNA co-injected in Xenopus laevis oocytes; stoichiometry unknown
Source text: as §1

Experiment [3] concerns the target T3, Xenopus tropicalis α4β2 nAChR, α4β2(FS) (Xenopus tropicalis, UniProt A0A8J0QAC2+A4IIS6, A4IIS6:S133C).
T3 construct: gene chrna4; full-length single subunits in pCMV-SPORT6 (Dharmacon), cRNA co-injected in Xenopus laevis oocytes; stoichiometry unknown
Source text: as §1

Experiment [4] concerns T4, Nanorana parkeri α4β2 nAChR, α4β2(FS).
T4 construct: full-length single subunits, codon-optimized synthetic DNA in pGEMHE, cRNA co-injected in Xenopus laevis oocytes; behaves as 3α:2β (conjecture)
The settings on record: agonist; α4:β2 cRNA ratio 1:3; -70 mV; Ba-ND96 with 1 µM atropine; room temperature; high-sensitivity site of biphasic fit, 95% CI.

On to `CC(=O)OCC[N+](C)(C)C` [acetylcholine], for which the concentration for a half-maximal effect (EC50) was found to be 21 nM in experiment [1], 47 nM in experiment [2], 18 nM in experiment [3] and 290 nM in experiment [4].
